Values quoted from earlier work, collected in patent publication US7829066B2, “Assay for anti-metastatic agents” (Memorial Sloan-Kettering Cancer Center, priority 2006, dated 2010).

System: metastatic tumors
Settings: stated as known

For “Avastin: an anti-VEGF inhibitor that is known to inhibit metastatic tumors”, the “inhibition of metastatic tumors” value is given as “known to inhibit metastatic tumors”.
